Assay results reported in publication PMC6407917, “Identification of GSK3186899/DDD853651 as a Preclinical Development Candidate for the Treatment of Visceral Leishmaniasis” (Journal of Medicinal Chemistry, 2018).

Columns and labels:
Experiment in all cases: biochemical
Parameters in all cases: species or system HEK293/K-562/placenta mixed human extract; Kinobeads chemoproteomic competition binding, quantified by TMT LC-MS/MS, dose response up to 20 uM
[1] = molecular target: TP53RK (Homo sapiens, UniProt Q96S44)
Sequence of TP53RK (Q96S44 whole entry): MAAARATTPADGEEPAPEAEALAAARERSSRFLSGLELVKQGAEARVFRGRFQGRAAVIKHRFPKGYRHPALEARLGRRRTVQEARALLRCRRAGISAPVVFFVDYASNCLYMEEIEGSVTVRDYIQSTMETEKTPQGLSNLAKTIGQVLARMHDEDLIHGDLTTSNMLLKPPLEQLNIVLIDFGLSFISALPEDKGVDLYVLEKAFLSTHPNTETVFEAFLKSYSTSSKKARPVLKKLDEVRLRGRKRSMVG

[2] = molecular target: EPHB2 (Homo sapiens, UniProt P29323)
[3] = molecular target: PIK3R4 (Homo sapiens, UniProt Q99570)
[4] = molecular target: MERTK (Homo sapiens, UniProt Q12866)
[5] = molecular target: BMP2K (Homo sapiens, UniProt Q9NSY1)
Sequence of BMP2K (Q9NSY1 whole entry): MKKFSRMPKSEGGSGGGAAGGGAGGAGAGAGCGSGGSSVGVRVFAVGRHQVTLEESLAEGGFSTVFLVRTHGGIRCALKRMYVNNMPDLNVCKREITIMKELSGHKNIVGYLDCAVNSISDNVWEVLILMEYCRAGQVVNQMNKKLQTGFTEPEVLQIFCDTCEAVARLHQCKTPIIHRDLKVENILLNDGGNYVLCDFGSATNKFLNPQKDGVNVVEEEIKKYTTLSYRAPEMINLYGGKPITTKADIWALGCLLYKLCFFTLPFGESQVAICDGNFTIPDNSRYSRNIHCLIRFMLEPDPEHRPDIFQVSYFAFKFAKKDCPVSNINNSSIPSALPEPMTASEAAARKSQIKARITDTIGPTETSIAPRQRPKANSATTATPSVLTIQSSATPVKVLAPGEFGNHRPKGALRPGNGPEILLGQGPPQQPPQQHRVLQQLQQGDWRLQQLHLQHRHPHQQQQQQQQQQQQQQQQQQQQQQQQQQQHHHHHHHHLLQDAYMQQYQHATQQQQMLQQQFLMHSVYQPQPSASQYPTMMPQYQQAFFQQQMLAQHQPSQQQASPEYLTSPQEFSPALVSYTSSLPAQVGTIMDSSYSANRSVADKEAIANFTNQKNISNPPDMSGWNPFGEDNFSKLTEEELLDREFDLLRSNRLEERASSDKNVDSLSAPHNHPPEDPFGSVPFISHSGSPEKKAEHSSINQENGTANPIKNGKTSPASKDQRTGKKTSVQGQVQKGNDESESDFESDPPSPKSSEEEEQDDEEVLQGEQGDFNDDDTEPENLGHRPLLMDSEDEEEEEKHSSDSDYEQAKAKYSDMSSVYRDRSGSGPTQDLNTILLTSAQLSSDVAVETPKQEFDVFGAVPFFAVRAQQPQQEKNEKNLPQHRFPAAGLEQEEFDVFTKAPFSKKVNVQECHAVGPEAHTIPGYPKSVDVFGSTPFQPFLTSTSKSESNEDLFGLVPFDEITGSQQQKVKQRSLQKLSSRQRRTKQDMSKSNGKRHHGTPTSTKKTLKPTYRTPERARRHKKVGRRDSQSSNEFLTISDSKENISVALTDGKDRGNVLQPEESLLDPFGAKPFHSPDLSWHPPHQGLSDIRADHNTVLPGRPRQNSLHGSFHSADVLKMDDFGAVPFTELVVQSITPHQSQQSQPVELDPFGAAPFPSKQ

[6] = molecular target: CDC7 (Homo sapiens, UniProt O00311)
[7] = molecular target: DAPK3 (Homo sapiens, UniProt O43293)
[8] = molecular target: CAMK2D (Homo sapiens, UniProt Q13557)
[9] = molecular target: EPHA7 (Homo sapiens, UniProt Q15375)
[10] = molecular target: EPHA1 (Homo sapiens, UniProt P21709)
Sequence of EPHA1 (P21709 whole entry): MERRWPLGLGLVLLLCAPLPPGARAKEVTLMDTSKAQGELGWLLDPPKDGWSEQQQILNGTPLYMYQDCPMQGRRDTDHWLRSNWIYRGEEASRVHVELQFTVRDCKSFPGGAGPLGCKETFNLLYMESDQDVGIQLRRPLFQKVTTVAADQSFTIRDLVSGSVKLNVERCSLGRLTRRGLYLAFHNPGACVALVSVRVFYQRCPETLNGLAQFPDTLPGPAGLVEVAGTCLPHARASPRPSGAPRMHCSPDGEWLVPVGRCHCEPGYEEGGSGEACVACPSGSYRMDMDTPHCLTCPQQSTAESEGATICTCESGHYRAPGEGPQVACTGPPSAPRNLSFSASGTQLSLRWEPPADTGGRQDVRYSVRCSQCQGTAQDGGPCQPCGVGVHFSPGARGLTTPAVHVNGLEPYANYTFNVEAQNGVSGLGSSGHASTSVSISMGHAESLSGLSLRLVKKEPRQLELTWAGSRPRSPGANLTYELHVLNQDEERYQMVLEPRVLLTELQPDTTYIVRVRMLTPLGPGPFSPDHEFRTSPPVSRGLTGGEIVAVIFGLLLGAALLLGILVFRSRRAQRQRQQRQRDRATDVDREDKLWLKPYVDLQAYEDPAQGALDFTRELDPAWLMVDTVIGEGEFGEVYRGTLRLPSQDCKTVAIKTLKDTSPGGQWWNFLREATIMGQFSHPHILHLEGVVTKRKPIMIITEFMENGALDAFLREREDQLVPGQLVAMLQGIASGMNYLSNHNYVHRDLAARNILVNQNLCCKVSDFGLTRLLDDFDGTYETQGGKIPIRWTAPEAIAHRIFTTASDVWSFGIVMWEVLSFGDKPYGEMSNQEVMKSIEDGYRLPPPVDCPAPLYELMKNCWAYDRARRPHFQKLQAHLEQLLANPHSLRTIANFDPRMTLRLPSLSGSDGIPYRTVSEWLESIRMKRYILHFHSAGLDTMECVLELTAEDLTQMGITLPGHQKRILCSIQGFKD

[11] = molecular target: RIPK1 (Homo sapiens, UniProt Q13546)
[12] = molecular target: CDC42BPA (Homo sapiens, UniProt Q5VT25)
[13] = molecular target: AURKB (Homo sapiens, UniProt Q96GD4)
[14] = molecular target: EIF2AK1 (Homo sapiens, UniProt Q9BQI3)
Sequence of EIF2AK1 (Q9BQI3 whole entry): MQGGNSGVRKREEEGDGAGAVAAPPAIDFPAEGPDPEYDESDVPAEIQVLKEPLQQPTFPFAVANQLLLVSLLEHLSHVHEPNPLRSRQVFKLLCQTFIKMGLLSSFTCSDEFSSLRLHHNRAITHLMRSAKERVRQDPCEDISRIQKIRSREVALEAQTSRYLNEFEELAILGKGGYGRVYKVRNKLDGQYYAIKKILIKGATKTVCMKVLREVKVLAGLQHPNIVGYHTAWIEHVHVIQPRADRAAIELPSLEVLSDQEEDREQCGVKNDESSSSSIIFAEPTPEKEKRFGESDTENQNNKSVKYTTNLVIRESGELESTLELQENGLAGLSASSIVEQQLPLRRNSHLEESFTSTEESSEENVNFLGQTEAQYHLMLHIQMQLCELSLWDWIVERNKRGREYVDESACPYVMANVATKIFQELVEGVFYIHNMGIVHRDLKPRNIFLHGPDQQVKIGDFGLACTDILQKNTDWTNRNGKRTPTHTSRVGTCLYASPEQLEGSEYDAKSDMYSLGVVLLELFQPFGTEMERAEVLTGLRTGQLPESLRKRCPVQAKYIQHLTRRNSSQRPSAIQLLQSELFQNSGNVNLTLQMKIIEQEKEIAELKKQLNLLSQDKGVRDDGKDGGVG

[15] = molecular target: BRSK2 (Homo sapiens, UniProt Q8IWQ3)
[16] = molecular target: PKN3 (Homo sapiens, UniProt Q6P5Z2)
[17] = molecular target: NEK2 (Homo sapiens, UniProt P51955)
[18] = molecular target: SNRK (Homo sapiens, UniProt Q9NRH2)
Sequence of SNRK (Q9NRH2 whole entry): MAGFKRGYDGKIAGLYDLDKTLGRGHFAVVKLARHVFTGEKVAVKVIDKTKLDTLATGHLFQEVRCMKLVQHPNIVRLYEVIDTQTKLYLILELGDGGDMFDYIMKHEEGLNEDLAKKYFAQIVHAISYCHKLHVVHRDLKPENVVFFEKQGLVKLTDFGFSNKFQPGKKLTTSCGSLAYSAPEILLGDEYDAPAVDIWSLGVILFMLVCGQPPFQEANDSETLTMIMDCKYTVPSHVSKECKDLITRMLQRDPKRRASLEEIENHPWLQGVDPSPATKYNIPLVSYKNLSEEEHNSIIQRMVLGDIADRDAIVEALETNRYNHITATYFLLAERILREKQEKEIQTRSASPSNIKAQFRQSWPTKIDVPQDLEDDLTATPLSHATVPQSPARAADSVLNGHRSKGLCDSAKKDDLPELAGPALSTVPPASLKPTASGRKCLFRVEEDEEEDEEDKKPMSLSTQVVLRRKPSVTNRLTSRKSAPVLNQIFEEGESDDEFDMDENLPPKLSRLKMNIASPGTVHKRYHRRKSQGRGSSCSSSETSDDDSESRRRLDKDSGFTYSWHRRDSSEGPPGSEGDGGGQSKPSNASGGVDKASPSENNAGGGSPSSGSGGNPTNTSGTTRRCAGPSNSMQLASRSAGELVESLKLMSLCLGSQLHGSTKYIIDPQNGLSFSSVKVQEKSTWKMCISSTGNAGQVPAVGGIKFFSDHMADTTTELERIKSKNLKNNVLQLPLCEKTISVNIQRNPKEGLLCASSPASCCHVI

[19] = molecular target: MAP3K15 (Homo sapiens, UniProt Q6ZN16)
Sequence of MAP3K15 (Q6ZN16 whole entry): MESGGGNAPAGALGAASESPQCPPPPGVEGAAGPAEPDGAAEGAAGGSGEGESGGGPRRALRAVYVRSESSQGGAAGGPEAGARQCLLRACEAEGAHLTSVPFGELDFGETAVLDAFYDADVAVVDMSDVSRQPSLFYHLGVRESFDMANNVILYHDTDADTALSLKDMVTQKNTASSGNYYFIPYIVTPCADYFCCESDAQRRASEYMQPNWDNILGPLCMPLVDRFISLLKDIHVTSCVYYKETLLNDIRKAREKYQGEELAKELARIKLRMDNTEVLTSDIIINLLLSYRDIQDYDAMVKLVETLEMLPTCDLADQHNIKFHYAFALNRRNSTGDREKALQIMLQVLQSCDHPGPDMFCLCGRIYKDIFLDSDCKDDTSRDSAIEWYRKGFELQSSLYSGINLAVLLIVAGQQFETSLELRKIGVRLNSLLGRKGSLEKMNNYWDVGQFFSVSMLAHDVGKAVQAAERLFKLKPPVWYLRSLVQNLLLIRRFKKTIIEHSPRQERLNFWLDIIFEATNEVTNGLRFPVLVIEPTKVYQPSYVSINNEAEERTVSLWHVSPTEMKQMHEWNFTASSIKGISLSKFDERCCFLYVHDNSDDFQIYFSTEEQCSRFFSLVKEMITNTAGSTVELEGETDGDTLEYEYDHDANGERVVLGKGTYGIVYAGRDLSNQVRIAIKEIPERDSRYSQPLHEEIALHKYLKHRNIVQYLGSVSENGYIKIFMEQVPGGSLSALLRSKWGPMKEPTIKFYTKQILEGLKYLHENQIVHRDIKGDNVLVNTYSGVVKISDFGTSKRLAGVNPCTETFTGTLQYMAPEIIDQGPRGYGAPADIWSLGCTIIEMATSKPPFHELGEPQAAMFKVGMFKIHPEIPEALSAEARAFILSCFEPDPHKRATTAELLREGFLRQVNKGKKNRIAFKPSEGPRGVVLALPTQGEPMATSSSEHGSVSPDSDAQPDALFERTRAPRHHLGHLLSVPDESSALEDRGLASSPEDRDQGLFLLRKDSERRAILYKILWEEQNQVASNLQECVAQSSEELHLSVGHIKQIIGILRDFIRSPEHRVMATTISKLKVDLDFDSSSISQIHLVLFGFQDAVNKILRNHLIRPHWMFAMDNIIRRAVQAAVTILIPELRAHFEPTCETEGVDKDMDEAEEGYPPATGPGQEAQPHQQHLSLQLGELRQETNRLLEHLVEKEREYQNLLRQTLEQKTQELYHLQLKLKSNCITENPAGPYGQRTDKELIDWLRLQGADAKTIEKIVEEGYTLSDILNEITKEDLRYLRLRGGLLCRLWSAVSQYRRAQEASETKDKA

[20] = molecular target: EPHB4 (Homo sapiens, UniProt P54760)
[21] = molecular target: PAK4 (Homo sapiens, UniProt O96013)

Measured: IC50

COc1ccccc1-c1n[nH]c2nc(N[C@H]3CC[C@H](NS(=O)(=O)CCC(F)(F)F)CC3)nc(OC)c12 [compound 31, 3,3,3-Trifluoro-N-(trans-4-((4-methoxy-3-(2-methoxyphenyl)-1H-pyrazolo[3,4-d]pyrimidin-6-yl)amino)cyclohexyl)propane-1-sulfonamide]
≥ 20 µM: all assays above
